From patent publication US20060134767A1, “Mitotic kinesin binding site” (priority 2002, published 2006)

Target: T1, KSP(367H) (Homo sapiens, UniProt P52732)
T1 construct: Add 18.75 μl of 4 μM stock nucleotide-free KSP(367H)
T1 sequence (P52732 1-367 limits assumed): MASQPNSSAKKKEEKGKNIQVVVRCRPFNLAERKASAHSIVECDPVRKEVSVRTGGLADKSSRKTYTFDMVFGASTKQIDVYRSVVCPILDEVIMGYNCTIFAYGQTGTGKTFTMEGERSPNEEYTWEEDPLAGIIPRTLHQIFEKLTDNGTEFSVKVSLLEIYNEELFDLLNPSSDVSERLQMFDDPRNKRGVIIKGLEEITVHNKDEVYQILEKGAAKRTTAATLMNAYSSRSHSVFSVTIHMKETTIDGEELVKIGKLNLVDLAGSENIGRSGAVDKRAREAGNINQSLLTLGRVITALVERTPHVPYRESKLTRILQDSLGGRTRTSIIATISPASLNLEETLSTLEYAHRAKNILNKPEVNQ
Assay: Fluorescence of Trp127 of KSP -/+ inhibitors (in vitro binding assay for the novel KSP binding site)
Description: The binding of a ligand to the novel binding site of the instant invention and the formation of the novel binding pocket as a result can als6 be indirectly assessed by spectroscopically determining the shift in the fluorescence of the amino acid 127 tryptophan residue. Thus it has been discovered that the fluorescent emission of Trp127 is modulated when KSP is treated with one of the inhibitors described above in the presence of a nucleotide or nucleotides.
A further embodiment of the instant invention is an in vitro assay for the determination of binding of a test compound to the novel KSP binding site described herein. The assay comprises the steps of: • 1. contacting KSP with the test compound and a nucleotide and measuring the fluorescence of the mixture at the peak emission wavelength for Trp127 in KSP; • 2. contacting KSP with a nucleotide and measuring the fluorescence of the mixture at the peak emission wavelength for Trp127 in KSP; and • 3. comparing the fluorescence of the mixture of KSP, the test compound and the nucleotide with the fluorescence of the mixture of KSP with the nucleotide alone.
In another embodiment of the in vitro fluorescence assay the nucleotide is selected from ADP and AMPPNP (a non-hydrolysable analog of ATP, adenosine 5′-(β,γ-imido)triphosphate tetralithium salt hydrate).
• 2× kinesin buffer: 160 mM K-Hepes, 2 mM MgCl2, 2 mM EGTA, 2 mM DTT (added fresh daily), and 100 mM KCl, pH 6.8. • Nucleotide: nucleotide is resuspended to 200 mM in 50 mM K-Hepes (pH 6.8). • Nucleotide is diluted 1:1 with 200 MM MgCl2 to a stock concentration of 100 mM of 1:1 nucleotide:MgCl2. • Cuvette volume=300 μl Methods • 1) Add 281 μl of 1× kinesin buffer, ±nucleotide, and H2O (Nucleotide=none, 1 mM AMPPNP, or 1 mM ADP (final concentration)). • 2) Add 18.75 μl of 4 μM stock nucleotide-free KSP(367H). • 3) Add compound sequentially from DMSO stock (with all the volume of all additions ≦0.6 μl). • 4) Measure fluorescence after each addition (starting with buffer only). • 5) Example titration for Compound 8-1 with KSP(367H)ADP: 281 μl of 1× kinesin buffer+1 mM ADP: • add 250 nM KSP (18.75 μl of 4 uM nucleotide-free stock) • add 1 nM Compound 8-1 (1 nMf) (addition of 0.3 μl of 0.001 mM stock) • add 2 nM Compound 8-1 (3 nMf) (addition of 0.6 μl of 0.001 mM stock) • add 4 nM Compound 8-1 (7 nMf) (addition of 0.12 μl of 0.01 mM stock) • add 3 nM Compound 8-1 (10 nMf) (addition of 0.09 μl of 0.01 mM stock) • add 20 nM Compound 8-1 (30 nMf) (addition of 0.6 μl of 0.01 mM stock) • add 40 nM Compound 8-1 (70 nMf) (addition of 0.12 μl of 0.1 mM stock) • add 30 nM Compound 8-1 (100 nMf) (addition of 0.09 μl of 0.1 mM stock) • add 200 nM Compound 8-1 (300 nMf) (addition of 0.6 μl of 0.1 mM stock) • add 400 nM Compound 8-1 (700 nMf) (addition of 0.12 μl of 1 mM stock) • add 300 nM Compound 8-1 (1000 nMf) (addition of 0.09 μl of 1 mM stock) • add 2000 nM Compound 8-1 (3000 nMf) (addition of 0.6 μl of 1 mM stock). • 6) After each addition, measure steady-state fluorescence under the following conditions: • λex=[…], λem=342-346 nm, band width=3 nm ex/3 nm em, wavelength increment=0.5 nm, integration time=2 s. • 7) Repeat the same titration series: • in the absence of KSP (to determine compound-related background), and in the absence of KSP, but in the presence of 1 μM L-tryptophan (to determine compound-related effects on the amino acid itself). Calculations
At the peak emission wavelength for W127 in KSP(367H) (=344 nm) measure the compound emission in kinesin buffer as a function of [compound]; measure fluorescence of L-tryptophan as a function of [compound]; measure fluorescence of KSP(367H) as a function of [compound]; correct KSP(367H) fluorescence for its decrease over time (due to losses of protein to the cuvette); subtract compound emission from L-tryptophan emission; subtract compound emission from KSP(367H) emission. […]

[1] = in the absence of the nucleotide
[2] = in the presence of ADP or AMPPNP

CCOC(=O)C1=C(C)NC(=S)NC1c1cccc(O)c1 (single isomer, unassigned; (+)) [Compound 5-2b, (+)-4-(3-Hydroxyphenyl)-6-methyl-2-thioxo-1,2,3,4-tetrahydro-4H-pyrimidin-5-carboxylic acid ethyl ester, reference compound]
fluorescence of Trp127 [1]: does not cause a decrease | fluorescence of Trp127 [2]: dose dependent decrease

CC(=O)N1N=C(c2ccccc2Cl)CC1c1cccc(O)c1 (stereo not drawn) [Compound 1-7, 3-[1-acetyl-3-(2-chlorophenyl)-4,5-dihydro-1H-pyrazol-5-yl]phenol]
fluorescence of Trp127 [1]: does not cause a decrease | fluorescence of Trp127 [2]: dose dependent decrease

CCC(c1nc2sccc2c(=O)n1Cc1ccccc1)N(CCN(C)C)Cc1ccc(Br)cc1 (stereo not drawn) [Compound 8-1, 3-benzyl-2-(1-{(4-bromobenzyl)[2-(dimethylamino)ethyl]amino}propyl)thieno[2,3-d]pyrimidin-4(3H)-one]
fluorescence of Trp127 [1]: does not cause a decrease | fluorescence of Trp127 [2]: dose dependent decrease
